Patent US9750705B2, “Agents useful for treating obesity, diabetes and related disorders” (The Regents of the University of California, priority 2012, dated 2017)
Structures can show the parent of a compound that is named as a salt.

Legend:
[1] = test system: insulin-dependent activation of Akt and ERK in FL83B cells; experiment: High-throughput in-cell western blot (ICWB) screen for insulin sensitizers: insulin-dependent phospho-Akt versus phospho-Erk; type: cell-based, mouse; details: for rank in the insulin-sensitizer screen: screen of 1689 molecules
Experimental: Drugs were screened by in-cell western blot (ICWB) for their ability to stimulate phospho-Akt activation in the presence of trace or 10 nM insulin (FIG. 4A). Cells in wells were treated with drugs, and the activity (phosphorylation) of Akt was determined by a phospho-Akt specific antibody. In FIG. 4A, low insulin was given and drugs a, b, c, stimulated Akt activation. In FIG. 4B, 10 nM insulin was given and a, b, and c stimulated signaling over background, and d and e inhibited. […] Drugs were primarily screened for their ability to promote insulin-dependent stimulation of (phospho) Akt, then secondarily screened for lack of activity to stimulate (phospho) Erk, or a high Akt/Erk ratio. Such drugs are expected to cause insulin sensitivity, resistance to obesity, and longevity. Some drugs having these desired characteristics are Shc inhibitors.
FL83B cells were seeded on 384 well plates, 10,000 cells per well in F-12 media supplemented with 10% FBS and 25 mM glucose; 48 hours later the media was replaced with F-12, 25 mM glucose without FBS for sixteen hours; cells were supplemented with assigned drug at desired concentration for 1 hour in duplicate and then, the cells were stimulated with desired concentration of insulin for ten minutes for Akt activation and fifteen minutes for ERK activation measurements. After that time the media was removed and replaced with fixing solution of 5% Formaldehyde in PBS, pH=7.4, 30 minutes later, the fixing solution was replaced with the permeabilization buffer, 0.1% triton X100 in PBS for 40 minutes. […] After the incubation with the secondary antibodies for one hour at room temperature, the wells were washed again two times with the 0.1% tween-20 in PBS and scanned on the Li-Cor Odyssey infrared scanner; images were analyzed with the Li-Cor Odyssey software. […] Phospho-Akt, Phospho-ERK signals than were normalized by tubulin signals in each well and the densitometric results were analyzed to identify drugs which improved metabolic insulin sensitivity without inducing the mitogenic ERK activation. […]

[2] = test system: phospho-Akt in FL83B cells; experiment: Western blot of insulin-dependent phospho-Akt; type: cell-based, mouse; details: for insulin-dependent phospho-Akt (P-Akt) signaling/activation: drug 1 hour, insulin 10 minutes
Experimental: As explained above and in Example 4, Western blots of phospho-Akt and phospho-Erk are a more accurate and precise and quantitative measure of Akt phosphorylation than ICWB measurements. Insulin-dependent phospho-Akt is a direct measurement of insulin sensitivity, and we expect that Shc inhibitors will stimulate phospho-Akt more than phospho-Erk. All of the drugs listed in FIG. 5A stimulated insulin-dependent phospho-Akt at some concentration. Method. Mouse liver cells FL83B were plated at density of 400.000 cells per well of 6 well plate and cultivated for 48 hours, media was changed to DMEM, 25 mM glucose serum free and 16 hours later the cells were treated with drug at the indicated concentration for one hour. Control wells were treated with the vehicle (DMSO), in certain control wells the metabolic (Akt) insulin signaling was blocked with wortmannin. The cells were induced with indicated concentration of insulin for 10 minutes, total protein was extracted and the Western Blots were performed with indicated antibody as described above. […]

[3] = test system: phospho-Erk in FL83B cells; experiment: Western blot of phospho-Erk; type: cell-based, mouse; details: drug 1 hour, then insulin
Experimental: As explained above and in Example 4, Western blots of phospho-Akt and phospho-Erk are a more accurate and precise and quantitative measure of Akt phosphorylation than ICWB measurements. Insulin-dependent phospho-Akt is a direct measurement of insulin sensitivity, and we expect that Shc inhibitors will stimulate phospho-Akt more than phospho-Erk. All of the drugs listed in FIG. 5A stimulated insulin-dependent phospho-Akt at some concentration. Method. Mouse liver cells FL83B were plated at density of 400.000 cells per well of 6 well plate and cultivated for 48 hours, media was changed to DMEM, 25 mM glucose serum free and 16 hours later the cells were treated with drug at the indicated concentration for one hour. Control wells were treated with the vehicle (DMSO), in certain control wells the metabolic (Akt) insulin signaling was blocked with wortmannin. The cells were induced with indicated concentration of insulin for 10 minutes, total protein was extracted and the Western Blots were performed with indicated antibody as described above. Mouse liver cells FL83B were plated at density of 400.000 cells per well of 6 well plate and cultivated for 48 hours, media was changed to DMEM, 25 mM glucose serum free and 16 hours later the cells were treated with drug at the indicated concentration for one hour. […]

phospho-Shc = experiment: Western blot of phospho-Shc (Shc activation); type: cell-based; details: dose response
Experimental: Assays to identify compounds useful for preventing, reducing, delaying or inhibiting symptoms of impaired insulin sensitivity, glucose intolerance or obesity can be performed in vitro. Candidate agents can be contacted with a population of test cells in the presence of insulin (e.g., 1 nM, 5 nM, 10 nM, 100 nM or more). An agent that prevents, reduces, delays or inhibits one or more symptoms of impaired insulin sensitivity, glucose intolerance or obesity increases the ratio of levels of phospho-Akt-1 over phospho-Erk relative to a control ratio. The increase in ratio of levels of phospho-Akt-1 over phospho-Erk can be determined in comparison to a control population of cells that have not been contacted with insulin or have been contacted with a low concentration of insulin (e.g., less than 0.1 nM) or a population of cells contacted with insulin but not with the compound under test. Ratio of levels of phospho-Akt-1 over phospho-Erk can be determined using a Western blot among other methods. Inhibition of Shc activity can be quantitatively measured by assaying the reduction of stimulatory Shc phosphorylation, using a phospho-Shc specific antibody. Inhibition of Shc expression can be measured using a Western blot. […]

[4] = Basal blood glucose in mice after daily drug administration; type: in vivo; details: 2.5 mg/kg I.P. for 4 days
Experimental: Groups of age/sex matched mice of Control and ShcKO genotypes were food deprived for four hours and challenged with I.P. injection of insulin, and glucose concentration was determined in blood exactly at indicated time-points. Decrease and recovery of blood glucose was calculated as a % of basal level (the time-point before insulin injection). Basal levels of glucose were measured in triplicate for each mouse. For the GTT, the same groups of mice were fasted during fourteen hours and challenged with glucose injection I.P., analogously the blood glucose concentrations were measured.
Groups of mice, ten for the experimental drug treatment and 14 for the placebo treatment were subject for I.P. administration of a drug or placebo solutions daily during four days. Acarbose, a known drug which decreases blood glucose concentration was used as a control. The insulin tolerance test, ITT was performed on the mice as described previously, in Example 2.

[5] = Insulin tolerance test (ITT) in mice; type: in vivo

Row | SMILES | rank in the insulin-sensitizer screen [1] | P-Akt/P-Erk ratio ([2]; Western blot) | insulin-dependent phospho-Akt (P-Akt) signaling/activation [2] | Erk activation [3] | phospho-Shc (Shc activation) (phospho-Shc) | basal blood glucose [4] | insulin sensitivity in-vivo (ITT) ([5]; 2.5 mg/kg I.P. for 4 days) | P-Akt/P-Erk ratio in the primary screen ([1]; ICWB, FL83B cells) | insulin sensitivity in vivo (ITT) ([5]; PO, 20 and 50 mg/kg)
1 | COc1cc2ncnc(Nc3ccc(Oc4ccccc4)cc3)c2cc1OC [Src I-1] | top 35 out of 1689 | increasing the P-Akt/P-Erk ratio | stimulates insulin-dependent P-Akt signaling | decreased Erk activation | inhibited phospho-Shc activation in dose-dependent manner | significantly decreased basal blood glucose | increased insulin sensitivity in-vivo | – | –
2 | COC1=C(OC)C(=O)C(CCCCCCCCCCO)=C(C)C1=O [idebenone] | – | – | increased insulin-dependent phospho-Akt activation in a dose-dependent manner | – | decreased phospho-Shc in a dose-dependent manner | – | – | increased P-Akt/P-Erk ratio | increased insulin sensitivity in vivo
3 | CN(C)C(=N)N=C(N)N [metformin, metformin hydrochloride] | top 35 out of 1689 | – | – | – | – | – | – | – | –
